# Test results from patent publication US9422308B2, “Derivatives of docosahexaenoylethanolamide and uses thereof” (The United States of America, as represented by the …, priority 2012, dated 2016).
# Several values for one entry are separate records, joined by “and”; a condition that tells them apart may be missing. Identical values can stand only once. Like-named read-outs stand apart in the source and are kept apart here.
# Assay: pharmacokinetics, plasma and brain, after IP dose in mice
# Format: in vivo
# Details: male C57BL/6 mice; for concentration at 0.083 hr / concentration at 0.25 hr / concentration at 0.5 hr / concentration at 1 hr / concentration at 2 hr / concentration at 3 hr / concentration at 4 hr / concentration at 8 hr: male, C57BL/6, mouse, ip, 50 mg/kg; for half-life: read-out: Terminal t1/2 (converted)
# Experimental: Each time point is […], with 11 time points=33 animals. Each time point was done in triplicate (N=3). The brain and plasma from each animal was analyzed.
# Formulation preparation: • IP: 5% DMAC+5% Solutol HS15+90% Saline • 50 mg/kg, 10 mL/kg
# Analytical method: • Instrument: LCMSMS-6 (Agilent 6410, triple quadrupole) • Matrix: Mouse plasma and brain homogenate • Analyte(s): NCGC00248435-03 • Internal standard(s): Diclofenac • MS conditions: Positive, ESI • MRM detection • NCGC00248435-03: [M+H]+m/z 400.3→72.2 • Diclofenac: [M+H]+m/z 296.0→214.0
# For plasma samples: An aliquot of 30 μL plasma sample was added with 100 μL ACN (including Diclofenac, 50 ng/mL) for protein precipitation. The mixture was vortexed for 2 min and centrifuged at 12000 rpm for 5 min. The 8 μL supernatant was injected into LC-MS/MS for analysis.
# For brain samples: Brain sample was homogenized for 2 min with 3 volumes (v/w) of homogenizing solution. An aliquot of 30 μL brain homogenate sample was added with 100 μL ACN (including Diclofenac, 50 ng/mL) for protein precipitation. The mixture was vortexed for 2 min and centrifuged at 12000 rpm for 5 min. The 8 μL supernatant was injected into LC-MS/MS for analysis.
# The IP dosing solution was prepared in 5% DMAC+5% SolutolHS15+90% Saline. Brain was homogenized with 3 volumes (v/w) of PBS (pH7.4) and then analyzed with LC-MS/MS. The Brain concentration was corrected with a dilution factor of 4 as following: Brain concentration=Brain homogenate conc.×4, assuming 1 g wet brain equals to 1 mL. BQL=Below quantifiable limit of 1 ng/mL for NCGC00248435-03 in male C57BL/6 plasma and brain homogenate samples. NA=Not available.
smiles,measurement,setting,value
"CC/C=C\C/C=C\C/C=C\C/C=C\C/C=C\C/C=C\CCC(=O)NCC(C)(C)O [Compound 1, (4Z,7Z,10Z,13Z,16Z,19Z)—N-(2-hydroxy-2-methylpropyl)docosa-4,7,10,13,16,19-hexaenamide]",clinical observation post dose,"IP 50 mg/kg, all animals",Slight mobility reduction
same,duration of mobility reduction post dose,"IP 50 mg/kg, all animals",1 h
same,brain concentration Dose Normalized Mean,"brain, 0.083 hr, IP 50 mg/kg",0.024
same,brain Concentration Individual,"brain, 0.083 hr, IP 50 mg/kg, 3 animals, listed as NCGC00248435-03, 50 mg/kg",310 ng/g and 551 ng/g
same,brain concentration Dose Normalized Mean,"brain, 0.25 hr, IP 50 mg/kg",0.054
same,brain Concentration Individual,"brain, 0.25 hr, IP 50 mg/kg, 3 animals, listed as NCGC00248435-03, 50 mg/kg",1081 ng/g and 1330 ng/g
same,brain concentration Dose Normalized Mean,"brain, 0.5 hr, IP 50 mg/kg",0.236
same,brain Concentration Individual,"brain, 0.5 hr, IP 50 mg/kg, 3 animals, listed as NCGC00248435-03, 50 mg/kg",5013 ng/g and 3992 ng/g
same,brain concentration Dose Normalized Mean,"brain, 1 hr, IP 50 mg/kg",0.152
same,brain Concentration Individual,"brain, 1 hr, IP 50 mg/kg, 3 animals, listed as NCGC00248435-03, 50 mg/kg",2086 ng/g and 3367 ng/g
same,brain concentration Dose Normalized Mean,"brain, 2 hr, IP 50 mg/kg",0.089
same,brain Concentration Individual,"brain, 2 hr, IP 50 mg/kg, 3 animals, listed as NCGC00248435-03, 50 mg/kg",2463 ng/g and 1494 ng/g
same,brain concentration Dose Normalized Mean,"brain, 3 hr, IP 50 mg/kg",0.075
same,brain Concentration Individual,"brain, 3 hr, IP 50 mg/kg, 3 animals, listed as NCGC00248435-03, 50 mg/kg",1410 ng/g and 1152 ng/g
same,brain concentration Dose Normalized Mean,"brain, 4 hr, IP 50 mg/kg",0.017
same,brain Concentration Individual,"brain, 4 hr, IP 50 mg/kg, 3 animals, listed as NCGC00248435-03, 50 mg/kg",234 ng/g and 585 ng/g and 179 ng/g
same,brain concentration Dose Normalized Mean,"brain, 8 hr, IP 50 mg/kg",0.001
same,brain Concentration Individual,"brain, 8 hr, IP 50 mg/kg, 3 animals, listed as NCGC00248435-03, 50 mg/kg",13.5 ng/g
same,brain concentration Dose Normalized Mean,"brain, 12 hr, IP 50 mg/kg",BQL (Below quantifiable limit of 1 ng/mL for NCGC00248435-03 in male C57BL/6 plasma and brain homogenate samples)
same,brain concentration Mean,"brain, 12 hr, IP 50 mg/kg",BQL (Below quantifiable limit of 1 ng/mL for NCGC00248435-03 in male C57BL/6 plasma and brain homogenate samples)
same,brain Concentration Individual,"brain, 12 hr, IP 50 mg/kg, 3 animals",BQL (Below quantifiable limit of 1 ng/mL for NCGC00248435-03 in male C57BL/6 plasma and brain homogenate samples)
same,brain concentration Dose Normalized Mean,"brain, 24 hr, IP 50 mg/kg",BQL (Below quantifiable limit of 1 ng/mL for NCGC00248435-03 in male C57BL/6 plasma and brain homogenate samples)
same,brain concentration Mean,"brain, 24 hr, IP 50 mg/kg",BQL (Below quantifiable limit of 1 ng/mL for NCGC00248435-03 in male C57BL/6 plasma and brain homogenate samples)
same,brain Concentration Individual,"brain, 24 hr, IP 50 mg/kg, 3 animals",BQL (Below quantifiable limit of 1 ng/mL for NCGC00248435-03 in male C57BL/6 plasma and brain homogenate samples)
same,AUCbrain(AUClast),"brain, IP 50 mg/kg",8458 ng·h/mL
same,concentration at 0.083 hr,"brain, brain, 0.083 hr, 3 animals, read-out: brain Concentration Individual",554 ng/g
same,concentration at 0.083 hr,"brain, brain, 0.083 hr, read-out: brain concentration Mean",472 ng/g and 1.18 µM
same,concentration at 0.25 hr,"brain, brain, 0.25 hr, 3 animals, read-out: brain Concentration Individual",853 ng/g
same,concentration at 0.25 hr,"brain, brain, 0.25 hr, read-out: brain concentration Mean",1090 ng/g and 2.72 µM
same,concentration at 0.5 hr,"brain, brain, 0.5 hr, 3 animals, read-out: brain Concentration Individual",5110 ng/g
same,concentration at 0.5 hr,"brain, brain, 0.5 hr, read-out: brain concentration Mean",4710 ng/g and 11.8 µM
same,concentration at 1 hr,"brain, brain, 1 hr, 3 animals, read-out: brain Concentration Individual",3650 ng/g
same,concentration at 1 hr,"brain, brain, 1 hr, read-out: brain concentration Mean",3040 ng/g and 7.59 µM
same,concentration at 2 hr,"brain, brain, 2 hr, 3 animals, read-out: brain Concentration Individual",1380 ng/g
same,concentration at 2 hr,"brain, brain, 2 hr, read-out: brain concentration Mean",1780 ng/g and 4.45 µM
same,concentration at 3 hr,"brain, brain, 3 hr, 3 animals, read-out: brain Concentration Individual",1930 ng/g
same,concentration at 3 hr,"brain, brain, 3 hr, read-out: brain concentration Mean",1500 ng/g and 3.75 µM
same,concentration at 4 hr,"brain, brain, 4 hr, read-out: brain concentration Mean",333 ng/g and 833 nM
same,concentration at 8 hr,"brain, brain, 8 hr, 3 animals, read-out: brain Concentration Individual",8.94 ng/g
same,concentration at 8 hr,"brain, brain, 8 hr, read-out: brain concentration Mean",12 ng/g and 30 nM
same,concentration at 0.083 hr,"plasma, plasma, 0.083 hr, 3 animals, read-out: plasma Concentration Individual",2090 ng/mL
same,concentration at 0.083 hr,"plasma, plasma, 0.083 hr, read-out: plasma concentration Mean",2620 ng/mL and 6.56 µM
same,concentration at 0.25 hr,"plasma, plasma, 0.25 hr, 3 animals, read-out: plasma Concentration Individual",6550 ng/mL
same,concentration at 0.25 hr,"plasma, plasma, 0.25 hr, read-out: plasma concentration Mean",5100 ng/mL and 12.8 µM
same,concentration at 0.5 hr,"plasma, plasma, 0.5 hr, 3 animals, read-out: plasma Concentration Individual",5960 ng/mL
same,concentration at 0.5 hr,"plasma, plasma, 0.5 hr, read-out: plasma concentration Mean",5790 ng/mL and 14.5 µM
same,concentration at 1 hr,"plasma, plasma, 1 hr, 3 animals, read-out: plasma Concentration Individual",4050 ng/mL
same,concentration at 1 hr,"plasma, plasma, 1 hr, read-out: plasma concentration Mean",3960 ng/mL and 9.91 µM
same,concentration at 2 hr,"plasma, plasma, 2 hr, 3 animals, read-out: plasma Concentration Individual",1130 ng/mL
same,concentration at 2 hr,"plasma, plasma, 2 hr, read-out: plasma concentration Mean",1020 ng/mL and 2.56 µM
same,concentration at 3 hr,"plasma, plasma, 3 hr, 3 animals, read-out: plasma Concentration Individual",321 ng/mL
same,concentration at 3 hr,"plasma, plasma, 3 hr, read-out: plasma concentration Mean",275 ng/mL and 688 nM
same,concentration at 4 hr,"plasma, plasma, 4 hr, read-out: plasma concentration Mean",100 ng/mL and 250 nM
same,concentration at 8 hr,"plasma, plasma, 8 hr, 3 animals, read-out: plasma Concentration Individual",1.83 ng/mL
same,concentration at 8 hr,"plasma, plasma, 8 hr, read-out: plasma concentration Mean",2.11 ng/mL and 5 nM
same,Kp,"mouse, brain and plasma, IP 50 mg/kg, read-out: AUCbrain/AUCplasma",1.05
same,AUC(0-inf),"mouse, brain, IP 50 mg/kg",8470 ng·h/mL
same,Cmax,"mouse, brain, IP 50 mg/kg",4710 ng/mL
same,Tmax,"mouse, brain, IP 50 mg/kg",30 min
same,half-life,"mouse, brain, IP 50 mg/kg",47.6 min
same,AUC(0-inf),"mouse, plasma, IP 50 mg/kg",8080 ng·h/mL
same,AUC(0-t),"mouse, plasma, IP 50 mg/kg",8080 ng·h/mL
same,Cmax,"mouse, plasma, IP 50 mg/kg",5790 ng/mL
same,Tmax,"mouse, plasma, IP 50 mg/kg",30 min
same,half-life,"mouse, plasma, IP 50 mg/kg",42.8 min
same,plasma concentration Dose Normalized Mean,"plasma, 0.083 hr, IP 50 mg/kg",0.131
same,plasma Concentration Individual,"plasma, 0.083 hr, IP 50 mg/kg, 3 animals, listed as NCGC00248435-03, 50 mg/kg",3063 ng/mL and 2707 ng/mL
same,plasma concentration Dose Normalized Mean,"plasma, 0.25 hr, IP 50 mg/kg",0.255
same,plasma Concentration Individual,"plasma, 0.25 hr, IP 50 mg/kg, 3 animals, listed as NCGC00248435-03, 50 mg/kg",4892 ng/mL and 3849 ng/mL
same,plasma concentration Dose Normalized Mean,"plasma, 0.5 hr, IP 50 mg/kg",0.290
same,plasma Concentration Individual,"plasma, 0.5 hr, IP 50 mg/kg, 3 animals, listed as NCGC00248435-03, 50 mg/kg",6378 ng/mL and 5036 ng/mL
same,plasma concentration Dose Normalized Mean,"plasma, 1 hr, IP 50 mg/kg",0.198
same,plasma Concentration Individual,"plasma, 1 hr, IP 50 mg/kg, 3 animals, listed as NCGC00248435-03, 50 mg/kg",4574 ng/mL and 3252 ng/mL
same,plasma concentration Dose Normalized Mean,"plasma, 2 hr, IP 50 mg/kg",0.051
same,plasma Concentration Individual,"plasma, 2 hr, IP 50 mg/kg, 3 animals, listed as NCGC00248435-03, 50 mg/kg",1064 ng/mL and 870 ng/mL
same,plasma concentration Dose Normalized Mean,"plasma, 3 hr, IP 50 mg/kg",0.014
same,plasma Concentration Individual,"plasma, 3 hr, IP 50 mg/kg, 3 animals, listed as NCGC00248435-03, 50 mg/kg",255 ng/mL and 249 ng/mL
same,plasma concentration Dose Normalized Mean,"plasma, 4 hr, IP 50 mg/kg",0.005
same,plasma Concentration Individual,"plasma, 4 hr, IP 50 mg/kg, 3 animals, listed as NCGC00248435-03, 50 mg/kg",78.4 ng/mL and 148 ng/mL and 72.9 ng/mL
same,plasma concentration Dose Normalized Mean,"plasma, 8 hr, IP 50 mg/kg",0.000
same,plasma Concentration Individual,"plasma, 8 hr, IP 50 mg/kg, 3 animals, listed as NCGC00248435-03, 50 mg/kg",2.94 ng/mL and 1.55 ng/mL
same,plasma concentration Dose Normalized Mean,"plasma, 12 hr, IP 50 mg/kg",BQL (Below quantifiable limit of 1 ng/mL for NCGC00248435-03 in male C57BL/6 plasma and brain homogenate samples)
same,plasma concentration Mean,"plasma, 12 hr, IP 50 mg/kg",BQL (Below quantifiable limit of 1 ng/mL for NCGC00248435-03 in male C57BL/6 plasma and brain homogenate samples)
same,plasma Concentration Individual,"plasma, 12 hr, IP 50 mg/kg, 3 animals",BQL (Below quantifiable limit of 1 ng/mL for NCGC00248435-03 in male C57BL/6 plasma and brain homogenate samples)
same,plasma concentration Dose Normalized Mean,"plasma, 24 hr, IP 50 mg/kg",BQL (Below quantifiable limit of 1 ng/mL for NCGC00248435-03 in male C57BL/6 plasma and brain homogenate samples)
same,plasma concentration Mean,"plasma, 24 hr, IP 50 mg/kg",BQL (Below quantifiable limit of 1 ng/mL for NCGC00248435-03 in male C57BL/6 plasma and brain homogenate samples)
same,plasma Concentration Individual,"plasma, 24 hr, IP 50 mg/kg, 3 animals",BQL (Below quantifiable limit of 1 ng/mL for NCGC00248435-03 in male C57BL/6 plasma and brain homogenate samples)
